Test results taken from US20160258951A1, “METHODS OF MONITORING IMMUNE RESPONSES” (THE HENRY M. JACKSON FOUNDATION FOR THE ADVANCEMENT OF …, priority 2013, published 2016).
Values joined by “and” are separate entries in the source; they are usually repeats but may differ in a detail not shown here. Equal values may be shown once.

How the values were obtained:
[1] = system: patients with HER2/neu+ breast cancer; conditions: clinical vaccines in HER2/neu+ breast cancer; cited from earlier work
CD8 T lymphocytes = assay: HLA-A2:Ig dimer staining with control peptide-loaded dimers; format: cell-based, human; conditions: almost 2000 peripheral blood samples from about 200-300 patients

| background binding value of negative control dimers (CD8 T lymphocytes) | Substance | safety and stimulation of antigen-specific immunity [1] |
| --- | --- | --- |
|  | IISAVVGIL [GP2] | safe and effective in stimulating antigen-specific immunity |
| 03% and 0.25-0.34% | NH2-RIAWARTEL-COOH (H-RIAWARTEL-OH) [E37] |  |
